Test results as given in PubChem BioAssay AID1963833 (Molecular Pharmacology Branch, DTP, NCI, 2024).

System: 883617-216-R-J1-PDC complex spheroid viability
Experiment: Anticancer human tumor 883617-216-R-J1-PDC patient-derived bladder carcinoma cell line growth inhibition [POLQ]
Conditions: for IC50: curve of first compound; for viability, T/C: stronger effect = lower value
Experimental: Multicellular complex tumor spheroid response to Polymerase (POL) inhibitors (novobiocin, ART-558, RP6685) in combination with a variety of drugs and investigational agents in selected tumor cell lines
The POL inhibitors (novobiocin, ART-558, and RP6685) were evaluated both individually and in combination with standard of care and investigational anticancer small molecules within a complex spheroid model of solid tumors. . Complex spheroids include a stromal component modeled by human endothelial cells (HUVEC) and fibroblasts modeled by human mesenchymal stem cells (MSCs). The concentration ranges selected for each drug and investigational agent were based upon clinically achievable concentrations if the clinical Cmax of the agent was known.
Compounds. The drugs and investigational agents: novobiocin (NSC847541), ART-558 (NSC835418), RP-6685 (NSC848927), peposertib (NSC802822), ceralasertib (NSC780249), elimusertib (NSC800525), camonsertib (NSC841442), AZD-1390 (NSC803789), olaparib (NSC753686), talazoparib (NSC767125), rucaparib (NSC756644), sotorasib (NSC818433), MRTX-1133 (NSC836407), SN-38 (NSC673596), topotecan (NSC609699), epotoside (NSC141540), doxorubicin (NSC123127), gemcitabine (NSC613327), 5-fluorouracil (NSC19893), paclitaxel (NSC125973), vemurafenib (NSC761431), MSA-2 (NSC828583), SN-011 (NSC837082), adavosertib (NSC754352), prexasertib (NSC758257), carboplatin (NSC241240) and oxaliplatin (NSC266046), were obtained from the National Cancer Institute (NCI) Developmental Therapeutics Program Chemical Repository (21). The FDA-approved anticancer drug set is available from the Developmental Therapeutics Program at https://dtp.cancer.gov/organization/dscb/obtaining/. […] The stock solutions were prepared in dimethyl sulfoxide (DMSO, Sigma-Aldrich, St. Louis, MO, cat. D2650), except for the platinum compounds which were prepared in saline (Quality Biological, Gaithersburg, MD, cat. 114-055-101), at 800-fold the tested concentration and stored at -70 degrees C prior to their use. All drugs and investigational agents were tested over a range starting from a high concentration at or near the clinical Cmax and decreasing in half-log increments. If the clinical Cmax for an agent had not been determined, the highest concentration tested was 10 microM, except for SN-38, which was tested at a high concentration of 1 microM.
Cell Culture. All cells were maintained in an incubator at 37 degrees C and 5% CO2 with 95% humidity. The PDC lines were cultured according to standard operating procedures established by the NCI PDMR (https://pdmr.cancer.gov). Table 3 of the manuscript, lists the cell lines along with the number of the three cell types plated to form the mct-spheroids and media for tumor cell growth. After thawing, all PDC lines, except 997537-175-T-J1-PDC and 415267-285-R-J2-PDC, were cultured in Matrigel-coated flasks prepared with a working solution of 1X Ham's F-12 nutrient mix, without supplementation (Thermo Fisher Scientific, cat. 11765054), 100 U/mL penicillin-streptomycin (Thermo Fisher Scientific, cat. 15140122), and 2.5% Matrigel (Corning Inc., Corning, NY, cat. 354248) for the first three passages. The two PDC lines 997537-175-T-J1-PDC and 415267-285-R-J2-PDC were cultured on uncoated flasks. The 857933-349-R-J2-PDC line was cultured in 6C/Colon 1B media containing advanced DMEM/F-12 (Thermo Fisher Scientific, cat. 12634028), 10 mM HEPES (Thermo Fisher Scientific, cat. 15630080), 1X GlutaMAX supplement (Thermo Fisher Scientific, cat. 35050061), 0.1 mg/mL primocin (InvivoGen, San Diego, CA, cat. ant-pm-2), 10% defined fetal bovine serum, heat inactivated (HyClone Laboratories Inc., Logan, UT, cat. SH30070.03HI), 50% L-WRN conditioned media (ATCC, cat. CRL-3276), 1.25 mM N-Acetyl-L-cysteine (Sigma-Aldrich, cat. A9165), 10 mM nicotinamide (Sigma-Aldrich, cat. N0636), 1X B-27 supplement (Thermo Fisher Scientific, cat. 17504044), 1X N-2 supplement (Thermo Fisher Scientific, cat. […]

[1] = second compound 0.0316 µM, first compound 0.0316 µM
[2] = second compound 0.0316 µM, first compound 0.1 µM
[3] = second compound 0.1 µM, first compound 0.0316 µM
[4] = second compound 0.1 µM, first compound 0.1 µM
[5] = second compound 0.316 µM, first compound 0.0316 µM
[6] = second compound 0.316 µM, first compound 0.1 µM
[7] = second compound 1 µM, first compound 0.0316 µM
[8] = second compound 1 µM, first compound 0.1 µM
[9] = second compound 3.16 µM, first compound 0.0316 µM
[10] = second compound 3.16 µM, first compound 0.1 µM
[11] = second compound 10 µM, first compound 0.0316 µM
[12] = second compound 10 µM, first compound 0.1 µM
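Further: spheroids exposed to compounds for seven days before readout.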
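Wherever viability, T/C is given: 100% = DMSO vehicle control viability.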

Compound: CC1COCCN1c1cc(-c2ccnn2C)c2ccnc(-c3ccn[nH]3)c2n1 (centres undefined) + COC1C(OC(N)=O)C(O)C(Oc2ccc3c(O)c(NC(=O)c4ccc(O)c(CC=C(C)C)c4)c(=O)oc3c2C)OC1(C)C
- IC50 (second compound 0.0316 µM): 0.297 µM
- IC50 (second compound 0.1 µM): 0.285 µM
- IC50 (second compound 0.316 µM): 0.124 µM
- IC50 (second compound 1 µM): 0.154 µM
- IC50 (second compound 3.16 µM): 0.156 µM
- IC50 (second compound 10 µM): 0.139 µM
- viability, T/C [1]: 89.7%
- viability, T/C [2]: 63.8%
- viability, T/C (second compound 0.0316 µM, first compound 0.316 µM): 53.1%
- viability, T/C (second compound 0.0316 µM, first compound 1 µM): 37%
- viability, T/C (second compound 0.0316 µM, first compound 3.16 µM): 28.1%
- viability, T/C (second compound 0.0316 µM, first compound 10 µM): 30.7%
- viability, T/C [3]: 83.2%
- viability, T/C [4]: 62.9%
- viability, T/C (second compound 0.1 µM, first compound 0.316 µM): 49.5%
- viability, T/C (second compound 0.1 µM, first compound 1 µM): 37.7%
- viability, T/C (second compound 0.1 µM, first compound 3.16 µM): 31.7%
- viability, T/C (second compound 0.1 µM, first compound 10 µM): 27%
- viability, T/C [5]: 91.2%
- viability, T/C [6]: 51%
- viability, T/C (second compound 0.316 µM, first compound 0.316 µM): 38.6%
- viability, T/C (second compound 0.316 µM, first compound 1 µM): 40.8%
- viability, T/C (second compound 0.316 µM, first compound 3.16 µM): 33.1%
- viability, T/C (second compound 0.316 µM, first compound 10 µM): 27.3%
- viability, T/C [7]: 82.7%
- viability, T/C [8]: 54.3%
- viability, T/C (second compound 1 µM, first compound 0.316 µM): 41.7%
- viability, T/C (second compound 1 µM, first compound 1 µM): 32.5%
- viability, T/C (second compound 1 µM, first compound 3.16 µM): 26.5%
- viability, T/C (second compound 1 µM, first compound 10 µM): 24.4%
- viability, T/C [9]: 86.3%
- viability, T/C [10]: 53.3%
- viability, T/C (second compound 3.16 µM, first compound 0.316 µM): 44%
- viability, T/C (second compound 3.16 µM, first compound 1 µM): 34.8%
- viability, T/C (second compound 3.16 µM, first compound 3.16 µM): 29.6%
- viability, T/C (second compound 3.16 µM, first compound 10 µM): 29.5%
- viability, T/C [11]: 91.1%
- viability, T/C [12]: 54.4%
- viability, T/C (second compound 10 µM, first compound 0.316 µM): 39.2%
- viability, T/C (second compound 10 µM, first compound 1 µM): 32.2%
- viability, T/C (second compound 10 µM, first compound 3.16 µM): 29.8%
- viability, T/C (second compound 10 µM, first compound 10 µM): 32.3%

Compound: Cn1ncnc1[C@H]1c2n[nH]c(=O)c3cc(F)cc(c23)N[C@@H]1c1ccc(F)cc1 + COC1C(OC(N)=O)C(O)C(Oc2ccc3c(O)c(NC(=O)c4ccc(O)c(CC=C(C)C)c4)c(=O)oc3c2C)OC1(C)C
- IC50 (second compound 0.0316 µM): > 0.1 µM
- IC50 (second compound 0.1 µM): > 0.1 µM
- IC50 (second compound 0.316 µM): > 0.1 µM
- IC50 (second compound 1 µM): > 0.1 µM
- IC50 (second compound 3.16 µM): > 0.1 µM
- IC50 (second compound 10 µM): > 0.1 µM
- viability, T/C (second compound 0.0316 µM, first compound 0.000316 µM): 103%
- viability, T/C (second compound 0.0316 µM, first compound 0.001 µM): 93.1%
- viability, T/C (second compound 0.0316 µM, first compound 0.00316 µM): 95.5%
- viability, T/C (second compound 0.0316 µM, first compound 0.01 µM): 94.9%
- viability, T/C [1]: 72.8%
- viability, T/C [2]: 78.4%
- viability, T/C (second compound 0.1 µM, first compound 0.000316 µM): 110%
- viability, T/C (second compound 0.1 µM, first compound 0.001 µM): 95.9%
- viability, T/C (second compound 0.1 µM, first compound 0.00316 µM): 108%
- viability, T/C (second compound 0.1 µM, first compound 0.01 µM): 80.2%
- viability, T/C [3]: 75.8%
- viability, T/C [4]: 69.3%
- viability, T/C (second compound 0.316 µM, first compound 0.000316 µM): 108%
- viability, T/C (second compound 0.316 µM, first compound 0.001 µM): 99%
- viability, T/C (second compound 0.316 µM, first compound 0.00316 µM): 89.9%
- viability, T/C (second compound 0.316 µM, first compound 0.01 µM): 82.9%
- viability, T/C [5]: 67.5%
- viability, T/C [6]: 64%
- viability, T/C (second compound 1 µM, first compound 0.000316 µM): 95.8%
- viability, T/C (second compound 1 µM, first compound 0.001 µM): 104%
- viability, T/C (second compound 1 µM, first compound 0.00316 µM): 101%
- viability, T/C (second compound 1 µM, first compound 0.01 µM): 80.5%
- viability, T/C [7]: 83.2%
- viability, T/C [8]: 76.9%
- viability, T/C (second compound 3.16 µM, first compound 0.000316 µM): 99.4%
- viability, T/C (second compound 3.16 µM, first compound 0.001 µM): 102%
- viability, T/C (second compound 3.16 µM, first compound 0.00316 µM): 101%
- viability, T/C (second compound 3.16 µM, first compound 0.01 µM): 70.9%
- viability, T/C [9]: 82.5%
- viability, T/C [10]: 68%
- viability, T/C (second compound 10 µM, first compound 0.000316 µM): 94.2%
- viability, T/C (second compound 10 µM, first compound 0.001 µM): 97.9%
- viability, T/C (second compound 10 µM, first compound 0.00316 µM): 97.7%
- viability, T/C (second compound 10 µM, first compound 0.01 µM): 71.6%
- viability, T/C [11]: 79.5%
- viability, T/C [12]: 70.8%
